{"source": "patent US20230057861A1", "about": "“USE OF CORYDALIS SAXICOLA BUNTING AND FORMULATION THEREOF IN PREPARATION OF DRUG FOR TREATING NON-ALCOHOLIC FATTY LIVER DISEASES” (NANJING ZHONGSHAN PHARMACEUTICAL CO., LTD., priority 2020, published 2023)", "test_system": "HFD-fed mice", "assay": "Liver histopathology, HE staining", "format": "in vivo, C57BL/6J mice", "settings": "metformin group (200 mg/kg), gavage 5 weeks, FIG. 5", "procedure": "1.4 Experimental method: After adaptive feeding for one week, 35 four-week-old male C57BL/6 mice were randomized into 2 initial groups, fed with a normal chow or a high-fat (60% fat) high-sugar (20% fructose) chow. […] During modeling, the mice were given ad libitum access to food and water at room temperature of 23-25° C. in an animal laboratory. The proper temperature and the 12-hour day-night cycle were maintained. From week 11, the mice in each group were dosed by gavage for 5 weeks, and its weight was measured once a week. 4.1.1 Experimental method: Fresh liver tissue was collected and fixed in 4% neutral formalin buffer for 24 h, and then dehydrated. The tissue blocks were trimmed, processed, and embedded in paraffin. The tissue in glass slides were cut to the thickness of 5 μm and treated with HE staining.", "data": [{"smiles": "CN(C)C(=N)N=C(N)N", "note": "[metformin]", "values": [{"measurement": "hepatocyte swelling, steatosis, sparse cytoplasm (HE staining)", "value": "significantly relieved"}]}]}
